The source of these data is patent publication US8377934B2, “Use of stilbene derivatives for treatment and prevention of aquatic mold infections” (State of Israel, Ministry of Agriculture & Rural …, priority 2006, dated 2013).

≈ marks a conversion by molar mass, not a printed value.

For test [1], the system named is S. parasitica. Put plainly: In vitro susceptibility of S. parasitica in Table 4. Type of test: cell-based, Saprolegnia parasitica. How it is done: The in vitro susceptibility of Saprolegnia parasitica T-1 and S. parasitica CBS 540.67 to various compounds was determined by the agar-dilution and broth macrodilution methods.
(§1) Two methods were used, each suitable for a different phase of the asexual life cycle of Saprolegnia spp.: i) the broth macrodilution method, for determination of susceptibility of zoospores and cysts; and ii) the agar-dilution method for determination of susceptibility of filamentous hyphae. Each compound was tested three times in each method. Malachite Green was used as positive control.
This method is a modification of the method used for molds according to EUCAST 7.1 (European Committee on Antibiotic Susceptibility Testing) and CLSI/NCCLS M27-A2 (Clinical Laboratory Standards Institute/National Committee for Clinical Laboratory Standards). For inoculum preparation, S. parasitica isolates were cultured on GP-PS for 7 days with sterile clover seeds at 18° C. Clover seeds (˜20) covered with mycelium were removed and added to 40 ml of RPMI-1640 broth medium (Sigma; prepared according to NCCLS instructions) and incubated at 18° C. for 4-7 days. Cysts and zoospores free from hyphae were collected, and an inoculum of ˜10^3 CFU/ml as measured by hemacytometer counting, was prepared in RPMI. Fluorescent Brightener 28 stock solution was prepared by adding 40% KOH gradually to a 10 mg/ml solution in water, until it was clear, then it was filtered twice through a 0.2 μm cellulose acetate nonpyrogenic sterile filter (Schleicher & Schuell, Dassel, Germany).
Twofold serial dilutions of the resulting stock solutions were set in RPMI-1640 medium in a volume of 0.1 ml. Final drug concentrations in the test tubes ranged from 1×10^4 to 0.01 mg/L. Inoculum of 0.9 ml was added to each of a sterile tube containing 0.1 ml of the serially diluted drug. Two tubes containing drug-free medium and two tubes containing drug-free inoculum were used as controls. The inoculated tubes were incubated at room temperature (15-20° C.) for 24 h. The growth in each tube was then evaluated visually.
This method is a modification of the method presented by Bailey (Bailey, T. A. (1983) Prog. Fish Cult. 45:24-27), and was used for the susceptibility testing of Saprolegnia hyphae. Twofold serial dilutions were prepared in double distillated sterile water with final drug concentrations ranging from 10,000 to 0.01 mg/L in a final volume of 1.0 ml. Melted (56° C.) RPMI-1640 agar medium (Sigma) was prepared according to NCCLS instructions, and then added to each tube containing drug or water control. The mixture was vortexed, and poured into small plates. After agar solidification a small measured piece, taken from a 7-10 day old culture of S. parasitica T-1 on GP-PS medium was placed upside down on each plate. The plates were incubated at room temperature (15-20° C.) for 24 h.

Test [2] relates to Saprolegnia parasitica T-1. Put plainly: Tilapia-saprolegniosis early infection model. Type of test: in vivo, Hybrid tilapia (Oreochromis niloticus X Oreochromis aureus). How it is done:
Hybrid tilapia (Oreochromis niloticus X Oreochromis aureus), with an average weight of 20 g were treated against ectoparasites using 25 μg/ml of formaldehyde (37% v/v) two weeks prior to the experiment, and were maintained at a constant temperature of 21° C. in a 100 liter polyethylene tank. The water tank was cooled from an initial temperature of 21° C. to 14° C. over a period of 10 days. The water was kept at a constant temperature of 14° C. and the fish were acclimated for 4 days. Physical stress of abrasion was then applied by agitating 40 fish for 10 seconds within a plastic net (30×20 cm). Following this, a sterile stainless steel tea infuser containing 60 clover-seeds covered with hyphae of Saprolegnia parasitica T-1 (7 day old culture on GP-PS medium at 18° C.) was added to each tank, in which the fish density was 20 fish per 100 liters. This treatment lasted 48 h and allowed the dispersion of zoospores that were produced. The density of the zoospores in the water was determined according to the method described below, and was estimated as 5×10^2-2×10^3 zoospores per liter. The fish were then transferred to different tanks, and treated with Blankophor® BA (200, 100, 50 or 25 mg/L) or Malachite Green (0.25 mg/L) for 8 h at 13-14° C., with 10 fish per 100 L water. The treatments were applied on 2nd, 4th and 6th day following initiation of the experiment. The fish were monitored for 14 days for the presence of any lesion covered with hyphae, indicative of Saprolegnia infection. Skin biopsies of diseased and moribund fish were checked microscopically (10× and 40× magnification). Morbidity and mortality was monitored daily. Moribund and or dead fish were removed from all tanks during the experimental period.
The determination of zoospore density in the water was performed according to Willoughby, L. G. (1994) Fungi and fish diseases, Pisces Press, Stirling, Scotland p. 57.
In brief, a 1 liter sample of water from the 100 liter tank was divided into 1 and 10 ml aliquots in sterile Petri dishes. Each sample was diluted with water to give a final volume of 20 ml and then one sterile clover seed was added in order to attract and keep the zoospores. All the water samples were incubated at room temperature for 72 h allowing spore germination. The density of the zoospores was determined according to the number of seeds covered with visible mycelium.
Treatments were carried out on the 2nd, 4th and 6th days after the initiation of the infection, and each treatment was for a period of 8 h. Fish treated with 0.25 mg/L Malachite Green served as a positive treatment control. Fish were monitored for 14 days. […] All fish treated with Blankophor BA survived for at least 10 days following initiation of the infection, in contrast to untreated fish which progressively died from the 3rd day.
Due to the high efficacy of the treatment with 100 mg/L Blankophor® BA, additional experiments were performed using lower concentrations of Blankophor® BA (50 and 25 mg/L). As in the previous experiments, infected fish were treated in tanks containing different concentrations of the compound on the 2nd, 4th and 6th days after the initiation of the infection. In addition, two additional treatment regimens were added i.e. 50 mg/L (administered on the 2nd and 9th days after initiation of the infection) and 100 mg/L (administered on the 2nd day after initiation of the infection).

Test [3] has as its system S. parasitica CBS 540.67. Kind of test: Agar-dilution susceptibility testing (filamentous hyphae). Type of test: cell-based, Saprolegnia parasitica.
Test [4] concerns S. parasitica T-1. The description is as above. Type of test: cell-based, Saprolegnia parasitica. The note with it: 24 h. As for the experimental part: as §1
Twofold serial dilutions were prepared in double distillated sterile water with final drug concentrations ranging from 10,000 to 0.01 mg/L in a final volume of 1.0 ml. […] The mixture was vortexed, and poured into small plates. After agar solidification a small measured piece, taken from a 7-10 day old culture of S. parasitica T-1 on GP-PS medium was placed upside down on each plate. The plates were incubated at room temperature (15-20° C.) for 24 h.

For `O=S(=O)([O-])c1cc(Nc2nc(Nc3ccccc3)nc(N(CCO)CCO)n2)ccc1C=Cc1ccc(Nc2nc(Nc3ccccc3)nc(N(CCO)CCO)n2)cc1S(=O)(=O)[O-].[K+].[Na+]` [Blankophor® BA], in test [1] (Table 4 summary), the “Activity in vitro (MIC), grade” value is listed as “Moderate” and the “Activity in vitro (MIC), value” is on record as “(100 mg/L)”. The “preventing and treating saprolegniosis in tilapia fish” value in test [2] (25 mg/liter for 8 hours) is on record as “effective”. For the same compound, in test [2] (50 and 100 mg/L), the “clinical observation, lesions” value is on record as “free of lesions” and the “culture for Saprolegnia” value is reported as “negative upon culture”. In test [2] (100 and 200 mg/L, 8 h on 2nd, 4th and 6th day, all treated fish), the “survival following initiation of the infection” value is listed as “at least 10 days”. Besides, the “therapeutic efficacy (survival of fish)” value in test [2] (100 and 200 mg/L, 8 h on 2nd, 4th and 6th day, monitored 14 days) is recorded as “as effective as Malachite Green”. Moreover, the Therapeutic efficacy entry in test [2] (Table 4 summary) is “Very Effective”. The “efficacy in preventing and treating early stage saprolegniosis” value in test [2] (even at a concentration as low as 25 mg/L, also 50 mg/L (days 2, 9) and 100 mg/L (day 2)) is “highly effective”. Moreover, in test [3] (S. parasitica CBS 540.67, 24 h, 15-20° C., geometric mean of three tests), the “MIC, Agar-dilution” value was determined as 200 µg/mL. For the same compound, the “MIC, Agar-dilution” value in test [4] (S. parasitica T-1, 15-20° C., geometric mean of three tests) turned out to be 200 µg/mL.

In the case of `C=O` [Formaldehyde], the MIC in test [1] (Saprolegnia parasitica, read-out: Activity in vitro (MIC), value) was 100 µg/mL (≈ 3.33 mM); in test [3] (Saprolegnia parasitica, CBS540, 24 h, read-out: MIC, Agar-dilution) it was 100 µg/mL (≈ 3.33 mM); in test [4] (Saprolegnia parasitica, read-out: MIC, Agar-dilution), 100 µg/mL (≈ 3.33 mM). Moreover, in test [2] (100 mg/L on 2nd, 4th and 6th days), the “fish died within 14 days” value was 70%.
